Test system: Puccinia triticina
Experiment: Fungicidal activity: Wheat Brown Rust (PUCCRT)
Type: in vivo
Settings: 24 h, Low Volume (121.5 g/H), 1 Day Protectant, read-out: PUCCRT 1 DP disease control
Protocol: (§1) Technical grades of materials were dissolved in acetone, which were then mixed with nine volumes of water containing 110 ppm Triton X-100. The fungicide solutions were applied onto wheat seedlings using an automated booth sprayer to run-off. All sprayed plants were allowed to air dry prior to further handling. All fungicides were evaluated using the aforementioned method for their activity vs. all target diseases, unless stated otherwise. Wheat leaf blotch and brown rust activity were also evaluated using track spray applications, in which case the fungicides were formulated as EC formulations, containing 0.1% Trycol 5941 in the spray solutions. Wheat plants (variety Yuma) were grown from seed in a greenhouse in 50% mineral soil/50% soil-less Metro mix until the first leaf was fully emerged, with 7-10 seedlings per pot. These plants were inoculated with an aqueous spore suspension of Septoria tritici either prior to or after fungicide treatments. After inoculation the plants were kept in 100% relative humidity (one day in a dark dew chamber followed by two to three days in a lighted dew chamber at 20° C.) to permit spores to germinate and infect the leaf. The plants were then transferred to a greenhouse set at 20° C. for disease to develop. When disease symptoms were fully expressed on the 1st leaves of untreated plants, infection levels were assessed on a scale of 0 to 100 percent disease severity. Percent disease control was calculated using the ratio of disease severity on treated plants relative to untreated plants. Evaluation of Fungicidal Activity: Wheat Brown Rust (Puccinia triticina; Synonym: Puccinia recondite f. Sp. Tritici; Bayer Code PUCCRT) Wheat plants (variety Yuma) were grown from seed in a greenhouse in 50% mineral soil/50% soil-less Metro mix until the first leaf was fully emerged, with 7-10 seedlings per pot. These plants were inoculated with an aqueous spore suspension of Puccinia triticina either prior to or after fungicide treatments. After inoculation the plants were kept in a dark dew room at 22° C. with 100% relative humidity overnight to permit spores to germinate and infect the leaf. The plants were then transferred to a greenhouse set at 24° C. for disease to develop. Fungicide formulation, application and disease assessment followed the procedures as described in the Example A.

| SMILES | pest or weed control at 121.5 g/ha [%] |
| --- | --- |
| COc1ccnc(C(=O)N[C@H]2COC[C@H](Cc3ccccc3)[C@@H](CC(C)C)[C@H](C)OC2=O)c1OC(C)=O [compound 18] | > 70 |
| CCC[C@H]1COC[C@H](NC(=O)c2nccc(OC)c2OCOC(=O)C(C)C)C(=O)O[C@@H](C)[C@@H]1c1ccccc1 [compound 99] | > 70 |
| COc1ccnc(C(=O)N[C@H]2COC[C@H](Cc3ccccc3)[C@@H](CCC(C)C)[C@H](C)OC2=O)c1OCOC(=O)C(C)C [compound 82] | < 70 |
| COc1ccnc(C(=O)N[C@H]2COC[C@H](Cc3ccccc3)[C@@H](CCC(C)C)[C@H](C)OC2=O)c1OCOC(C)=O [compound 85] | > 70 |
| COc1ccnc(C(=O)N[C@H]2COC[C@H](Cc3ccc(C(F)(F)F)cc3)[C@@H](Cc3ccccc3)[C@H](C)OC2=O)c1OC(C)=O [compound 55] | > 70 |
| COc1ccnc(C(=O)N[C@H]2COC[C@H](Cc3ccc(C(F)(F)F)cc3)[C@@H](Cc3ccccc3)[C@H](C)OC2=O)c1OCOC(=O)C(C)C [compound 57] | > 70 |
| COc1ccnc(C(=O)N[C@H]2COC[C@H](Cc3ccccc3)[C@@H](Cc3ccc(F)cc3)[C@H](C)OC2=O)c1OCOC(C)=O [compound 61] | > 70 |
| COc1ccnc(C(=O)N[C@H]2COC[C@H](Cc3ccc(C(F)(F)F)cc3)[C@@H](Cc3ccc(F)cc3)[C@H](C)OC2=O)c1OCOC(=O)C(C)C [compound 80] | > 70 |
| CCOCC(=O)OCOc1c(OC)ccnc1C(=O)N[C@H]1COC[C@H](Cc2ccccc2)[C@@H](CCc2ccccc2)[C@H](C)OC1=O [compound 32] | > 70 |
| CCC[C@H]1COC[C@H](NC(=O)c2nccc(OC)c2OCOC(=O)C(C)C)C(=O)O[C@@H](C)[C@@H]1Cc1ccccc1 [compound 24] | > 70 |
| COc1ccnc(C(=O)N[C@H]2COC[C@H](CCCc3ccccc3)[C@@H](Cc3ccccc3)[C@H](C)OC2=O)c1OCOC(C)=O [compound 42] | > 70 |
| COc1ccnc(C(=O)N[C@H]2COC[C@H](Cc3ccccc3)[C@@H](C3CCCC3)[C@H](C)OC2=O)c1OCOC(=O)C(C)C [compound 39] | > 70 |
| COc1ccnc(C(=O)N[C@H]2COC[C@H](Cc3ccccc3)[C@@H](C3CCCC3)[C@H](C)OC2=O)c1OC(C)=O [compound 37] | > 70 |

Same assay, conditions: 72 h, Low Volume (121.5 g/H), 3 Day Curative, read-out: PUCCRT 3 DC disease control

| SMILES | pest or weed control at 121.5 g/ha [%] |
| --- | --- |
| COc1ccnc(C(=O)N[C@H]2COC[C@H](Cc3ccccc3)[C@@H](CC(C)C)[C@H](C)OC2=O)c1OC(C)=O [compound 18] | < 70 |
| CCC[C@H]1COC[C@H](NC(=O)c2nccc(OC)c2OCOC(=O)C(C)C)C(=O)O[C@@H](C)[C@@H]1c1ccccc1 [compound 99] | > 70 |
| COc1ccnc(C(=O)N[C@H]2COC[C@H](Cc3ccccc3)[C@@H](CCC(C)C)[C@H](C)OC2=O)c1OCOC(=O)C(C)C [compound 82] | < 70 |
| COc1ccnc(C(=O)N[C@H]2COC[C@H](Cc3ccccc3)[C@@H](CCC(C)C)[C@H](C)OC2=O)c1OCOC(C)=O [compound 85] | > 70 |
| COc1ccnc(C(=O)N[C@H]2COC[C@H](Cc3ccc(C(F)(F)F)cc3)[C@@H](Cc3ccccc3)[C@H](C)OC2=O)c1OC(C)=O [compound 55] | > 70 |
| COc1ccnc(C(=O)N[C@H]2COC[C@H](Cc3ccc(C(F)(F)F)cc3)[C@@H](Cc3ccccc3)[C@H](C)OC2=O)c1OCOC(=O)C(C)C [compound 57] | < 70 |
| COc1ccnc(C(=O)N[C@H]2COC[C@H](Cc3ccccc3)[C@@H](Cc3ccc(F)cc3)[C@H](C)OC2=O)c1OCOC(C)=O [compound 61] | > 70 |
| COc1ccnc(C(=O)N[C@H]2COC[C@H](Cc3ccc(C(F)(F)F)cc3)[C@@H](Cc3ccc(F)cc3)[C@H](C)OC2=O)c1OCOC(=O)C(C)C [compound 80] | < 70 |
| CCOCC(=O)OCOc1c(OC)ccnc1C(=O)N[C@H]1COC[C@H](Cc2ccccc2)[C@@H](CCc2ccccc2)[C@H](C)OC1=O [compound 32] | > 70 |
| CCC[C@H]1COC[C@H](NC(=O)c2nccc(OC)c2OCOC(=O)C(C)C)C(=O)O[C@@H](C)[C@@H]1Cc1ccccc1 [compound 24] | > 70 |
| COc1ccnc(C(=O)N[C@H]2COC[C@H](CCCc3ccccc3)[C@@H](Cc3ccccc3)[C@H](C)OC2=O)c1OCOC(C)=O [compound 42] | < 70 |
| COc1ccnc(C(=O)N[C@H]2COC[C@H](Cc3ccccc3)[C@@H](C3CCCC3)[C@H](C)OC2=O)c1OCOC(=O)C(C)C [compound 39] | > 70 |
| COc1ccnc(C(=O)N[C@H]2COC[C@H](Cc3ccccc3)[C@@H](C3CCCC3)[C@H](C)OC2=O)c1OC(C)=O [compound 37] | > 70 |

Test system: Mycosphaerella graminicola; Anamorph: Septoria tritici
Experiment: Fungicidal activity: Leaf Blotch of Wheat (SEPTTR)
Type: in vivo
Settings: Zymoseptoria tritici, 24 h; Low Volume (121.5 g/H), 1 Day Protectant, wheat leaf blotch; read-out: SEPTTR 1 DP disease control
Protocol: as §1, with “Evaluation of Fungicidal Activity: Leaf Blotch of Wheat (Mycosphaerella graminicola; Anamorph: Septoria tritici; Bayer Code […]) Technical” for “Technical”, “plants.” for “plants. Evaluation of Fungicidal Activity: Wheat Brown Rust (Puccinia triticina; Synonym: Puccinia recondite f. Sp. Tritici; Bayer Code PUCCRT) Wheat plants (variety Yuma) were grown from seed in a greenhouse in 50% mineral soil/50% soil-less Metro mix until the first leaf was fully emerged, with 7-10 seedlings per pot. These plants were inoculated with an aqueous spore suspension of Puccinia triticina either prior to or after fungicide treatments. After inoculation the plants were kept in a dark dew room at 22° C. with 100% relative humidity overnight to permit spores to germinate and infect the leaf. The plants were then transferred to a greenhouse set at 24° C. for disease to develop. Fungicide formulation, application and disease assessment followed the procedures as described in the Example A.”

| SMILES | pest or weed control at 121.5 g/ha [%] |
| --- | --- |
| COc1ccnc(C(=O)N[C@H]2COC[C@H](Cc3ccccc3)[C@@H](CC(C)C)[C@H](C)OC2=O)c1OC(C)=O [compound 18] | > 70 |
| CCC[C@H]1COC[C@H](NC(=O)c2nccc(OC)c2OCOC(=O)C(C)C)C(=O)O[C@@H](C)[C@@H]1c1ccccc1 [compound 99] | > 70 |
| COc1ccnc(C(=O)N[C@H]2COC[C@H](Cc3ccccc3)[C@@H](CCC(C)C)[C@H](C)OC2=O)c1OCOC(=O)C(C)C [compound 82] | < 70 |
| COc1ccnc(C(=O)N[C@H]2COC[C@H](Cc3ccccc3)[C@@H](CCC(C)C)[C@H](C)OC2=O)c1OCOC(C)=O [compound 85] | > 70 |
| COc1ccnc(C(=O)N[C@H]2COC[C@H](Cc3ccc(C(F)(F)F)cc3)[C@@H](Cc3ccccc3)[C@H](C)OC2=O)c1OC(C)=O [compound 55] | > 70 |
| COc1ccnc(C(=O)N[C@H]2COC[C@H](Cc3ccc(C(F)(F)F)cc3)[C@@H](Cc3ccccc3)[C@H](C)OC2=O)c1OCOC(=O)C(C)C [compound 57] | > 70 |
| COc1ccnc(C(=O)N[C@H]2COC[C@H](Cc3ccccc3)[C@@H](Cc3ccc(F)cc3)[C@H](C)OC2=O)c1OCOC(C)=O [compound 61] | > 70 |
| COc1ccnc(C(=O)N[C@H]2COC[C@H](Cc3ccc(C(F)(F)F)cc3)[C@@H](Cc3ccc(F)cc3)[C@H](C)OC2=O)c1OCOC(=O)C(C)C [compound 80] | < 70 |
| CCOCC(=O)OCOc1c(OC)ccnc1C(=O)N[C@H]1COC[C@H](Cc2ccccc2)[C@@H](CCc2ccccc2)[C@H](C)OC1=O [compound 32] | > 70 |
| CCC[C@H]1COC[C@H](NC(=O)c2nccc(OC)c2OCOC(=O)C(C)C)C(=O)O[C@@H](C)[C@@H]1Cc1ccccc1 [compound 24] | > 70 |
| COc1ccnc(C(=O)N[C@H]2COC[C@H](CCCc3ccccc3)[C@@H](Cc3ccccc3)[C@H](C)OC2=O)c1OCOC(C)=O [compound 42] | > 70 |
| COc1ccnc(C(=O)N[C@H]2COC[C@H](Cc3ccccc3)[C@@H](C3CCCC3)[C@H](C)OC2=O)c1OCOC(=O)C(C)C [compound 39] | > 70 |
| COc1ccnc(C(=O)N[C@H]2COC[C@H](Cc3ccccc3)[C@@H](C3CCCC3)[C@H](C)OC2=O)c1OC(C)=O [compound 37] | > 70 |

Same assay, conditions: Zymoseptoria tritici, 72 h; Low Volume (121.5 g/H), 3 Day Curative, wheat leaf blotch; read-out: SEPTTR 3 DC disease control

| SMILES | pest or weed control at 121.5 g/ha [%] |
| --- | --- |
| COc1ccnc(C(=O)N[C@H]2COC[C@H](Cc3ccccc3)[C@@H](CC(C)C)[C@H](C)OC2=O)c1OC(C)=O [compound 18] | > 70 |
| CCC[C@H]1COC[C@H](NC(=O)c2nccc(OC)c2OCOC(=O)C(C)C)C(=O)O[C@@H](C)[C@@H]1c1ccccc1 [compound 99] | > 70 |
| COc1ccnc(C(=O)N[C@H]2COC[C@H](Cc3ccccc3)[C@@H](CCC(C)C)[C@H](C)OC2=O)c1OCOC(=O)C(C)C [compound 82] | < 70 |
| COc1ccnc(C(=O)N[C@H]2COC[C@H](Cc3ccccc3)[C@@H](CCC(C)C)[C@H](C)OC2=O)c1OCOC(C)=O [compound 85] | > 70 |
| COc1ccnc(C(=O)N[C@H]2COC[C@H](Cc3ccc(C(F)(F)F)cc3)[C@@H](Cc3ccccc3)[C@H](C)OC2=O)c1OC(C)=O [compound 55] | > 70 |
| COc1ccnc(C(=O)N[C@H]2COC[C@H](Cc3ccc(C(F)(F)F)cc3)[C@@H](Cc3ccccc3)[C@H](C)OC2=O)c1OCOC(=O)C(C)C [compound 57] | > 70 |
| COc1ccnc(C(=O)N[C@H]2COC[C@H](Cc3ccccc3)[C@@H](Cc3ccc(F)cc3)[C@H](C)OC2=O)c1OCOC(C)=O [compound 61] | > 70 |
| COc1ccnc(C(=O)N[C@H]2COC[C@H](Cc3ccc(C(F)(F)F)cc3)[C@@H](Cc3ccc(F)cc3)[C@H](C)OC2=O)c1OCOC(=O)C(C)C [compound 80] | < 70 |
| CCOCC(=O)OCOc1c(OC)ccnc1C(=O)N[C@H]1COC[C@H](Cc2ccccc2)[C@@H](CCc2ccccc2)[C@H](C)OC1=O [compound 32] | > 70 |
| CCC[C@H]1COC[C@H](NC(=O)c2nccc(OC)c2OCOC(=O)C(C)C)C(=O)O[C@@H](C)[C@@H]1Cc1ccccc1 [compound 24] | > 70 |
| COc1ccnc(C(=O)N[C@H]2COC[C@H](CCCc3ccccc3)[C@@H](Cc3ccccc3)[C@H](C)OC2=O)c1OCOC(C)=O [compound 42] | > 70 |
| COc1ccnc(C(=O)N[C@H]2COC[C@H](Cc3ccccc3)[C@@H](C3CCCC3)[C@H](C)OC2=O)c1OCOC(=O)C(C)C [compound 39] | > 70 |
| COc1ccnc(C(=O)N[C@H]2COC[C@H](Cc3ccccc3)[C@@H](C3CCCC3)[C@H](C)OC2=O)c1OC(C)=O [compound 37] | > 70 |

Reference: patent US9955691B2, “Macrocyclic picolinamides as fungicides” (DOW AGROSCIENCES LLC, priority 2014, dated 2018)
